In ChEMBL document CHEMBL3507680, “University of Dundee, Gates Library screen for HepG2 cell viability” one finds cytotoxicity data, which are given here for 104 compounds.

The data set in a line: Human HepG2 cell viability assay in 384 well format. The data set is classed as toxicity, cell-based. On the set-up: dose 125 nL, time 70.5 hour; cytotoxicity at 70.5 h: concentration not given beside the values. As to conditions: HepG2 cells, read-out: Inhibition.

Turning to `O=C(C1CCCc2[nH]ncc21)N1CCCC2(C1)OCCO2` (centres undefined), the cytotoxicity at 70.5 h was -9.5%.
In the case of `CN1CCN(c2cc(CNCc3cccc4c3OCO4)ccn2)CC1` it was -8.22%.
In the case of `Cc1cnn(CC2CN(CCCS(=O)(=O)N(C)C)CCO2)c1` (centres undefined) it was -10.7%; in that of `CC(C(=O)NCc1ccnc(OCC(F)(F)F)c1)n1cncn1` (centres undefined), -2.68%.
Consider `Cc1[nH]ncc1CCCNC(=O)Nc1ccc(F)cc1`, for which the cytotoxicity at 70.5 h was 3.38%.
In the case of `O=C(c1cccnc1-n1cncn1)N1CCN(c2ccccc2)CC1` it was -8.14%.
In the case of `COc1ccc(Oc2ccc(CNC(=O)C(C)n3cncn3)cn2)cc1` (centres undefined) it was -0.159%; in that of `CC(C)(C)c1nnc(CN2CCN(C(=O)N3CCCCC3)CC2)o1`, -3.76%; in that of `CC(C)CCN1CCN(C(=O)c2cccnc2-n2cncn2)CC1`, -3.48%.
In the case of `Cc1ccc(C(=O)NCCNCC2CNc3ccnn3C2)cc1F` (centres undefined) it was 1.33%.
Take `CCCN1CCN(C(=O)c2cccnc2-n2cncn2)CC1`: the cytotoxicity at 70.5 h is -2.43%.
The result for `O=C(c1cccnc1-n1cncn1)N1CCN(C2CCCC2)CC1` reads -5.59%; that for `Cc1[nH]ncc1CCCNC(=O)Nc1ccc2c(c1)OC1(CCCC1)O2`, -2.92%; that for `CCN(C(=O)CSc1ccc(C(F)(F)F)cn1)C1CC1`, 7.64%.
In the case of `Cc1ccc(C(=O)NCCNCC2CNc3ccnn3C2)cc1` (centres undefined) it was -0.325%; in that of `CC(C)(C)c1nnc(CN2CCN(C(=O)CC3CCCCC3)CC2)o1`, -2.8%; in that of `Cc1cnn(CC2CCCN2CC(=O)N(C)Cc2cnn(C)c2)c1` (centres undefined), -1.69%.
As for `Cc1[nH]ncc1CCCNC(=O)Nc1ccccc1`, the cytotoxicity at 70.5 h is 14.5%.
Take `CCOCC(O)CN1CCN(C(=O)c2ccc(N(C)C)nc2)CC1` (centres undefined): the cytotoxicity at 70.5 h was found to be 1.39%.
Take `CC(O)CN1CCN(C(=O)c2ccnc(N(C)C)c2)CC1` (centres undefined): the cytotoxicity at 70.5 h was determined as 14.1%.
For the compound `CCCc1nc(C)c(C(=O)NS(=O)(=O)c2cccnc2)s1`, the cytotoxicity at 70.5 h was -0.303%.
In the case of `CN(CCn1cnnc1)C(=O)c1ccnc(OC2CCC2)c1` it was 16.2%; in that of `COCC(=O)NCc1cccc(OCCN(C)C2CCOCC2)c1`, -0.957%; in that of `Cc1cccc(C(=O)NCCNCC2CNc3ccnn3C2)c1` (centres undefined), -1.43%.
Regarding `CCCc1nc(CN(C)CC2CCN(CCO)CC2)no1`, the cytotoxicity at 70.5 h amounted to 14.7%.
Take `CC(=O)N1CCC(c2nc(Cc3ccccc3)no2)C1` (centres undefined): the cytotoxicity at 70.5 h was -3.88%.
The result for `Cc1nc(C)n(CC2CCCN2CC(=O)N(C)Cc2ccc(C)o2)n1` (centres undefined) reads -4.56%; that for `CN(CCOc1cccc(CNS(C)(=O)=O)c1)C1CCOCC1`, 1.39%.
The result for `CN(Cc1cnn(C)c1)C(=O)c1ccnc(OC2CCC2)c1` reads 15.8%.
The result for `CCc1noc(CN(C)C(=O)c2ccnc(OC3CCC3)c2)n1` reads -0.589%; that for `CC(=O)N1CCCN(Cc2nnc(C(C)(C)C)o2)CC1`, 5.23%; that for `Cn1nc(C(=O)N(CC(F)(F)F)c2cccc(Cl)c2)ccc1=O`, 9.92%.
As for `Cc1cccc2c(CCNC(=O)NCC[S+](C)[O-])c[nH]c12` (centres undefined), the cytotoxicity at 70.5 h turned out to be 0.892%.
For the compound `Cc1nc(C(=O)N(C)C2CC(=O)N(Cc3ccccc3)C2=O)cs1` (centres undefined), the cytotoxicity at 70.5 h was -5.65%.
On to `CCCc1nc(CNc2cc(CS(C)(=O)=O)ccc2Cl)no1`, for which the cytotoxicity at 70.5 h was -0.135%.
Regarding `CCN(Cc1cnn(C)c1)S(=O)(=O)N1CCCC1c1ccco1` (centres undefined), the cytotoxicity at 70.5 h stood at 3.59%.
The result for `COCC(C)(C#N)NC(=O)COc1ccccc1` (centres undefined) reads -0.947%; that for `COC(=O)c1cc(C(=O)N2CCc3ccc(F)cc3C2C)ccn1` (centres undefined), -0.61%.
For the compound `CCC(CO)NC(=O)Cc1ccc(NC(=O)CC2=CCCCC2)cc1` (centres undefined), the cytotoxicity at 70.5 h was -3.34%.
In the case of `CN1CC(Nc2ccc(Br)cc2C#N)CCC1=O` (centres undefined) it was -0.708%; in that of `COc1ccnc(N(C)Cc2ccccc2O)n1`, 1.42%; in that of `CCCN(CC1CC1)S(=O)(=O)c1ccc(NC(C)=O)cc1`, -1.65%.
In the case of `CN(CCN1CCOCC1)S(=O)(=O)CC1CCCC1` it was -0.906%; in that of `CN(C(=O)c1ccc[nH]1)C1CC(=O)N(Cc2ccccc2)C1=O` (centres undefined), -4.14%; in that of `Cc1cc(C)n(CC2CCCCN2C(=O)c2sccc2C#N)n1` (centres undefined), 1.28%.
The result for `Cc1ccc(C2CCCN2S(=O)(=O)N(C)Cc2cnn(C)c2)o1` (centres undefined) reads 13.3%; that for `COc1ccc(CN2CCN(C(C)=O)CC2)cc1SC(F)(F)F`, 0.0728%; that for `N#Cc1c(N2CCCN(C3CCOCC3)CC2)nc2ccccn12`, -2.26%.
For the compound `CC(=O)N1CCC(Nc2ccc(Br)cc2C#N)C1` (centres undefined), the cytotoxicity at 70.5 h amounted to 4.92%.
In the case of `CN(c1ncnc2c1CCC2)C1CCCN(c2cccnn2)C1` (centres undefined) it was 1.68%; in that of `Cc1ccc(F)cc1NC(=O)CCn1cncn1`, -8.38%; in that of `Cc1cc(F)ccc1NCC(=O)NCC(F)(F)F`, 0.946%.
The result for `CC(=O)Nc1nc(C(=O)NCCOc2ccccc2F)cs1` reads -15.5%; that for `CCN(CC)Cc1ccccc1NC(=O)N(C)Cc1ccc(OC)cc1`, -15.6%.
As to `Cn1ccnc1COc1ccc(CSc2nnnn2C)cc1`, the cytotoxicity at 70.5 h is -11.4%.
The result for `Cc1cc(C(=O)N2CCC(N3CCNC3=O)CC2)nn1C(C)(C)C` reads -16.5%; that for `Cc1cnn(CC2CC2)c1NC(=O)c1cccnc1O`, 14.4%.
In the case of `NC(=O)NC(=O)CCN1C(=O)CC(Cc2ccc(F)cc2)C1=O` (centres undefined) it was -13.2%; in that of `CCC(NC(=O)CS(=O)(=O)C1CCCC1)c1cc(F)ccc1F` (centres undefined), -7.05%; in that of `CC(Cn1cncn1)NC(=O)Nc1ccc(F)cc1OCC1CC1` (centres undefined), -9.35%.
For `CC(CNC(=O)c1cnccn1)Oc1cccc(Br)c1` (centres undefined), the cytotoxicity at 70.5 h was determined as 12.9%.
Regarding `CNC(=O)c1ccc(OC)c(NCc2noc(-c3ccsc3)n2)c1`, the cytotoxicity at 70.5 h was -11.3%.
In the case of `COCCn1cc(NCc2cccc3cn[nH]c23)cn1` it was -5.47%; in that of `COc1ccc(C(N)=O)cc1NCc1noc(-c2ccsc2)n1`, -10.8%.
In the case of `CN(c1ncnc2sccc12)C1CCCN(c2cccnn2)C1` (centres undefined) it was -13.9%; in that of `CN(C(=O)CCc1ccsc1)S(C)(=O)=O`, 6.34%; in that of `Cc1ccc(OC(C)CNC(=O)c2c[nH]nn2)cc1` (centres undefined), -7.76%.
In the case of `O=C(c1cnccn1)N1CCN(c2ccnc3ccsc23)CC1` it was -13.2%; in that of `Cc1noc(CCNS(=O)(=O)N2CCCC2c2ccco2)n1` (centres undefined), -8.16%.
Consider `Cc1cccc(-c2nnc(C(C)NCCn3cc(C)cn3)o2)c1` (centres undefined), for which the cytotoxicity at 70.5 h is -7.5%.
In the case of `CC(C)c1nc2n(n1)CC(NCCc1cccs1)CC2` (centres undefined) it was -5.42%; in that of `CNS(=O)(=O)c1cccc(CNC(=O)c2cnn(C)c2C)c1`, -11.8%.
In the case of `Cc1noc(CS(=O)(=O)C/C=C/c2ccccc2)n1` it was -19.1%; in that of `CC(CCNC(=O)NCCc1ccc(S(N)(=O)=O)cc1)c1ccccc1` (centres undefined), -8.25%; in that of `CC(CCNC(=O)NCCNc1cnccn1)c1ccccc1` (centres undefined), -13.6%.
The result for `CS(=O)(=O)NC1CCN(C(=O)CCn2cccn2)CC1` reads -9.56%.
With `Cc1cc(SC(C)(C)C)ccc1NCC(=O)NC(N)=O`, the cytotoxicity at 70.5 h is -9.41%.
The result for `NC(=O)CCN(C(=O)c1cccc2c1OCO2)c1ccccc1` reads -14%; that for `CCc1ccc(C(=O)O)cc1S(=O)(=O)N(C)c1cccc(C#N)c1`, -6.98%.
In the case of `Cc1ccc(C(=O)O)cc1S(=O)(=O)N(C)c1cccc(C#N)c1` it was -7.91%; in that of `CC(Cn1cccn1)C(=O)N1CCC(Nc2cccnn2)CC1` (centres undefined), -10%.
With `CCc1ccc(C(=O)O)cc1S(=O)(=O)N(C)c1cccc(C)c1`, the cytotoxicity at 70.5 h was -7.54%.
The result for `Cc1c(I)cccc1C(=O)NCc1ncc[nH]1` reads -0.0896%; that for `Cc1nn(CC(=O)Nc2cccc(F)c2)c(N)c1C#N`, -5.02%; that for `Cc1ccc(C)c(NC(=O)Cn2nc(C)c(C#N)c2N)c1`, -10.2%.
In the case of `CC(CC#N)N(C)Cc1ccccc1F` (centres undefined) it was -9.07%; in that of `Cc1oc(CN(C)C(=O)c2ccc(C(F)(F)F)cc2)cc1C(=O)O`, -6.23%; in that of `Cc1cc(CN(Cc2ccccc2)C(C)CN2CCOCC2)no1` (centres undefined), -5.58%.
For the compound `CNC(=O)c1cccc(CNC(C)c2cc(Cl)ccc2OC)c1` (centres undefined), the cytotoxicity at 70.5 h was -2.03%.
The result for `Fc1ccc(NCc2ncc[nH]2)cc1Br` reads -7.28%; that for `CNC(=O)C(C)(C)CNC(=O)Nc1cc(C)ccn1`, -7.88%.
In the case of `CC(C)c1nc2n(n1)CC(NCC(=O)N(C)Cc1cccs1)CC2` (centres undefined) it was -13.3%; in that of `CC(=O)OCC1CCCCN1C(=O)c1ccc(Cn2ccnc2)o1` (centres undefined), 22.8%.
The result for `Cn1cc(C(C)(O)CNC(=O)c2ccc(Br)s2)cn1` (centres undefined) reads 48.4%.
For `N#Cc1cccc(OCC(=O)N(Cc2ccncc2)C2CC2)c1`, the cytotoxicity at 70.5 h is -10.3%.
The result for `CCS(=O)(=O)N1CCN(C(C)c2ccccc2OC)CC1` (centres undefined) reads -10.2%.
For `CC(=O)N1CCCc2cc(NC(=O)NCCc3cnn(C)c3)ccc21`, the cytotoxicity at 70.5 h was -2.87%.
Turning to `Cc1ccccc1C(C)(C)CNC(=O)CN(C)c1cnccn1`, the cytotoxicity at 70.5 h was -0.621%.
For `CCOC1CCCN(C(=O)Nc2cnn(CC(F)F)c2)C1` (centres undefined), the cytotoxicity at 70.5 h is -9.21%.
In the case of `c1nc(N2CCN(Cc3nnnn3C3CC3)CC2)c2sccc2n1` it was 2.44%.
In the case of `Cc1nsc(N2CCc3sccc3C2)n1` it was -1.49%; in that of `OCC1CN(Cc2nc(C(F)(F)F)cs2)c2ccccc2O1` (centres undefined), -9.55%.
In the case of `Cc1nc(CN2CC(CO)Oc3ccccc32)sc1C` (centres undefined), the cytotoxicity at 70.5 h is -3.25%.
In the case of `CC(C)C1CN(C(=O)Nc2cnn(CC(F)F)c2)CCS1` (centres undefined) it was 5.93%.
